Here are results for 8 compounds from ChEMBL document CHEMBL5291721, “A preclinical secondary pharmacology resource illuminates target-adverse drug reaction associations of marketed drugs” (Nat Commun, 2023).

As a reminder, the AC50 is the concentration giving half of the maximal activity seen.

Where only a bound is given, the exact number is not on record here.

Among the targets are Adenosine receptor A2a (Homo sapiens, UniProt P29274); Melanocortin receptor 3 (Homo sapiens, UniProt P41968); Motilin receptor (Homo sapiens, UniProt O43193); D(3) dopamine receptor (Homo sapiens, UniProt P35462).
The target in assay [1] is 5-hydroxytryptamine receptor 2B (Homo sapiens, UniProt P41595). It counts as functional, cell-based.
Assay [2] concerns the target Voltage-gated inwardly rectifying potassium channel KCNH2 (Homo sapiens, UniProt Q12809). It counts as functional. The note with it: read-out: AC50.
For assay [3], the target named is Beta-1 adrenergic receptor (Homo sapiens, UniProt P08588). It counts as functional.
For assay [4], the target named is T1, Muscarinic acetylcholine receptor M2 (Homo sapiens, UniProt P08172).
T1 sequence (P08172 whole entry): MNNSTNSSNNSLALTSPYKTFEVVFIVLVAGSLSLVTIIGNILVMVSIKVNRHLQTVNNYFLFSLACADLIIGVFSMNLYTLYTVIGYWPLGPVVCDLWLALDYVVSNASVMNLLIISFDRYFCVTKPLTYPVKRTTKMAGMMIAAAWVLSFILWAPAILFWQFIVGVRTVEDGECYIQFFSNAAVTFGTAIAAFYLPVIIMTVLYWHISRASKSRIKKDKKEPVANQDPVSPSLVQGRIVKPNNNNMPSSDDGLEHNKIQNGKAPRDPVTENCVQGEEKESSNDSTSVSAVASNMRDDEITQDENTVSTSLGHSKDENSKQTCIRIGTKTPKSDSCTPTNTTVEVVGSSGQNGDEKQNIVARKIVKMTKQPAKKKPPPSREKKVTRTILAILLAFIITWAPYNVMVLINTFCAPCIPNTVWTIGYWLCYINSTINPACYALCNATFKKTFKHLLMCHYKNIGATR
It counts as functional, cell-based.

The target in assay [5] is Sodium-dependent dopamine transporter (Homo sapiens, UniProt Q01959).
Sodium-dependent dopamine transporter, sequence (Q01959 whole entry): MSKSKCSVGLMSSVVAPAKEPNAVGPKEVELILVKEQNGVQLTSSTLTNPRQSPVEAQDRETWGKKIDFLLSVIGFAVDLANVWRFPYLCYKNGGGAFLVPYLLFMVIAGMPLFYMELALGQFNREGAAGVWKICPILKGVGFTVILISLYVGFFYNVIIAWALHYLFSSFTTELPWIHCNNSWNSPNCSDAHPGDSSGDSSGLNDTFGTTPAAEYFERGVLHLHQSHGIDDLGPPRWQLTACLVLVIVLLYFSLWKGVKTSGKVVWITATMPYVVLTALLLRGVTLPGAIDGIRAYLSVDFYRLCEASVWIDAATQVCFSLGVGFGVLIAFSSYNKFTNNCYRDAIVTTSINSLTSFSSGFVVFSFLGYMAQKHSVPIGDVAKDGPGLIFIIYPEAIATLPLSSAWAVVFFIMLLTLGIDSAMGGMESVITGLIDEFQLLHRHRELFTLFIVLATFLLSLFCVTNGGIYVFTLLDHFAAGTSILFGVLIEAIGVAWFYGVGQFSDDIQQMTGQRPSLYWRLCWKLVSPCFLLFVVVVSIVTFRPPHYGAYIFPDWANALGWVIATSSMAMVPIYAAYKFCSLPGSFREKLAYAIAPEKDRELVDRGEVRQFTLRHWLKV
For assay [6], the target named is T2, Cholecystokinin receptor type A (Homo sapiens, UniProt P32238).
T2 sequence (P32238 whole entry): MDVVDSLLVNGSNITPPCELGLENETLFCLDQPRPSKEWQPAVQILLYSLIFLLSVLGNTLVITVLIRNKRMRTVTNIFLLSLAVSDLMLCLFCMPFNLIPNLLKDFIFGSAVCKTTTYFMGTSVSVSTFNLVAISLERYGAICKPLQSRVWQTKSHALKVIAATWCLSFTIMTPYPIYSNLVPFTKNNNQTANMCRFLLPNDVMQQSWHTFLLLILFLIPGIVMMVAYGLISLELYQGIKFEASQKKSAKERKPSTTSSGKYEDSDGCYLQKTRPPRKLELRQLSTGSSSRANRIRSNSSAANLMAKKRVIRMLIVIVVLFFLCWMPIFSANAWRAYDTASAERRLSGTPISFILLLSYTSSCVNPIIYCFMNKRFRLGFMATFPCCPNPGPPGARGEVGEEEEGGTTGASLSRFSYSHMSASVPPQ

Assay [7] addresses T3, Alpha-2C adrenergic receptor (Homo sapiens, UniProt P18825).
T3 sequence (P18825 whole entry): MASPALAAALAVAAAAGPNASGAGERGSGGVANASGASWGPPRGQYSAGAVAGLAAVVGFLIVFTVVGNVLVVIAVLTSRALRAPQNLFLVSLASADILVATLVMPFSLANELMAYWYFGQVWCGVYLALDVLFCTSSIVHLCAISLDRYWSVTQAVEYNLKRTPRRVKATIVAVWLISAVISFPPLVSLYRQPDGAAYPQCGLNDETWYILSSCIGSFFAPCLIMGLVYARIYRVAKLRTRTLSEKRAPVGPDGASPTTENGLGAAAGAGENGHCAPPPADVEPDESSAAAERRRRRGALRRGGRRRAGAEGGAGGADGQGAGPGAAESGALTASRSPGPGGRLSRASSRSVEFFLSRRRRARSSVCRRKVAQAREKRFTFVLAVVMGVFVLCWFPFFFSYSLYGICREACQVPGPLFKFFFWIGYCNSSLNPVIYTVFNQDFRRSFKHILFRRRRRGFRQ
Type of assay: functional.

Assay [8] has as its target Neuronal acetylcholine receptor subunit alpha-4 (Homo sapiens, UniProt P43681).
A further assay addresses T4, Adenosine receptor A1 (Homo sapiens, UniProt P30542).
T4 sequence (P30542 whole entry): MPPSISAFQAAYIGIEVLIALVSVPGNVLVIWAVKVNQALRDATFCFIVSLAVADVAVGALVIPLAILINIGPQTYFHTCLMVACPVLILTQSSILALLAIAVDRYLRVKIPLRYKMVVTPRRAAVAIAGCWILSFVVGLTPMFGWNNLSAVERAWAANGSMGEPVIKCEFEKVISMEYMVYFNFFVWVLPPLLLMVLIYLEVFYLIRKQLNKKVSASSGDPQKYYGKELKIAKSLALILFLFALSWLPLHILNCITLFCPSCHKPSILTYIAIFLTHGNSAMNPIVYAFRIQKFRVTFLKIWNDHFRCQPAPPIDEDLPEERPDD

Assay [9] concerns the target Sodium-dependent noradrenaline transporter (Homo sapiens, UniProt P23975).
For the next assay, the target named is Bile salt export pump (Homo sapiens, UniProt O95342). Type of assay: functional.
Bile salt export pump, sequence (O95342 whole entry): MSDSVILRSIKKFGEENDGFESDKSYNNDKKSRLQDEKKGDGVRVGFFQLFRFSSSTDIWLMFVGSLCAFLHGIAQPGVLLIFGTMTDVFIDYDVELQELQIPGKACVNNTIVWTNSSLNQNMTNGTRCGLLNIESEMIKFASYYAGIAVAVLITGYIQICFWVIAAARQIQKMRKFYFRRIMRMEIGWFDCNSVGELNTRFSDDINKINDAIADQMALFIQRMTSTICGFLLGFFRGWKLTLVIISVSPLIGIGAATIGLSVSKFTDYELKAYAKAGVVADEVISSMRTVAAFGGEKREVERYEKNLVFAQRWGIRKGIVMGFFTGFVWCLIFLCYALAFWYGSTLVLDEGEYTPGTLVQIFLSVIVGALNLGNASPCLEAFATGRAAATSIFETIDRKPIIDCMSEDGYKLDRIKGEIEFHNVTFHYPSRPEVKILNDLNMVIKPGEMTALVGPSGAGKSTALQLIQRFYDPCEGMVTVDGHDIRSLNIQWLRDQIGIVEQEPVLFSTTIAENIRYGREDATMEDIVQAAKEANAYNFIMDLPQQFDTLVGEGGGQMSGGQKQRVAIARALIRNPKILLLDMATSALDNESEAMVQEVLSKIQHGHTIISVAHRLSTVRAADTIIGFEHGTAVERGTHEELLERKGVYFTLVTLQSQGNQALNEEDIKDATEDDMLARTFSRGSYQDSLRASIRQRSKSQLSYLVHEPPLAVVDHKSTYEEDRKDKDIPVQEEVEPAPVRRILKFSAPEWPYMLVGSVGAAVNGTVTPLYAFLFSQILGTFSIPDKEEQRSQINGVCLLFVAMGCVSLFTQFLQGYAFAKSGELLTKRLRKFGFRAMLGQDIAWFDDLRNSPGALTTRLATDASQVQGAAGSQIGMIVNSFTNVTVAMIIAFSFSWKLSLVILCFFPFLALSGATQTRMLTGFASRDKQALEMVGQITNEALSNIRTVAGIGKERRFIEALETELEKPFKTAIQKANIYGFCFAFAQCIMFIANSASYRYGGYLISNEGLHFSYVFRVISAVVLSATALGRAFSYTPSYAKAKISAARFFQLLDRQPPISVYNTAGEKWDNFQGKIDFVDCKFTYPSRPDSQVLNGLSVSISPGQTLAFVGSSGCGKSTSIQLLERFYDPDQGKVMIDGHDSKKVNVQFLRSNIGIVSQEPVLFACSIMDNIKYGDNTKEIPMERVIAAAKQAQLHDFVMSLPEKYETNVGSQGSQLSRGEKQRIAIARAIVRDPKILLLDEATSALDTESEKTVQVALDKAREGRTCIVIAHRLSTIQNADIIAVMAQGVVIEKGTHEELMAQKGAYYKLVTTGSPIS
Assay [10] concerns the target T5, Alpha-2A adrenergic receptor (Homo sapiens, UniProt P08913).
T5 sequence (P08913 whole entry): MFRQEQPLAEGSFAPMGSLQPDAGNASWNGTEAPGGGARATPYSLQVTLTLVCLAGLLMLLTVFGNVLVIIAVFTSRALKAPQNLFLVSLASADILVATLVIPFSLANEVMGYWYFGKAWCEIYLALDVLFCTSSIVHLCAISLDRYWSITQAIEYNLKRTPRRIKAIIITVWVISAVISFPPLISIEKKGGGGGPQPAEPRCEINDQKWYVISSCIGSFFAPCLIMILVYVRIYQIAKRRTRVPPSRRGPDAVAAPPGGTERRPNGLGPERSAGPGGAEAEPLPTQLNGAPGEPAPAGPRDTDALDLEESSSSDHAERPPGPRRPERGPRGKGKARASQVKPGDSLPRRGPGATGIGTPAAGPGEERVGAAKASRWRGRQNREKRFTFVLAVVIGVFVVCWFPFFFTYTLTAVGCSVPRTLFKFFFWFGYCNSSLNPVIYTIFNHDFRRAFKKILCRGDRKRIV
Type of assay: functional, cell-based.

In assay [11] the target is T5, Alpha-2A adrenergic receptor. Type of assay: functional, cell-based. This is another data set of the same source.
Also: assay procedure not described here.

Neuronal acetylcholine receptor subunit alpha-4, sequence (P43681 whole entry): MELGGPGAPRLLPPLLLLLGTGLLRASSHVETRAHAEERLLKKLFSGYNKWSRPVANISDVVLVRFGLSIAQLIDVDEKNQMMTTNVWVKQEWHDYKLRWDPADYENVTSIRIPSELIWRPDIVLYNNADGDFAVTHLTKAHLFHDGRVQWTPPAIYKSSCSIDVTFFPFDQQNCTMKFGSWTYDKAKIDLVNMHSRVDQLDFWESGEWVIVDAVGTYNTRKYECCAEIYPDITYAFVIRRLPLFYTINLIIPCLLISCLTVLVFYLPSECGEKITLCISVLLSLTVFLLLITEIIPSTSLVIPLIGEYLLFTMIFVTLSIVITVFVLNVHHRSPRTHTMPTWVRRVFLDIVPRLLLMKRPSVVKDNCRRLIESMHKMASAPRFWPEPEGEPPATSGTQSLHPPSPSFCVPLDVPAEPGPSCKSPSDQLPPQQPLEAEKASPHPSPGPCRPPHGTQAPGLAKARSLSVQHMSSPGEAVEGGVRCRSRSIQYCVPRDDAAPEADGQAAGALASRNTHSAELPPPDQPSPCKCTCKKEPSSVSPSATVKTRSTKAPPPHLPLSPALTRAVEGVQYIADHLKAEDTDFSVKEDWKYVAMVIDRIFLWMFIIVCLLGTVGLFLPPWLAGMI
Voltage-gated inwardly rectifying potassium channel KCNH2, sequence (Q12809 whole entry): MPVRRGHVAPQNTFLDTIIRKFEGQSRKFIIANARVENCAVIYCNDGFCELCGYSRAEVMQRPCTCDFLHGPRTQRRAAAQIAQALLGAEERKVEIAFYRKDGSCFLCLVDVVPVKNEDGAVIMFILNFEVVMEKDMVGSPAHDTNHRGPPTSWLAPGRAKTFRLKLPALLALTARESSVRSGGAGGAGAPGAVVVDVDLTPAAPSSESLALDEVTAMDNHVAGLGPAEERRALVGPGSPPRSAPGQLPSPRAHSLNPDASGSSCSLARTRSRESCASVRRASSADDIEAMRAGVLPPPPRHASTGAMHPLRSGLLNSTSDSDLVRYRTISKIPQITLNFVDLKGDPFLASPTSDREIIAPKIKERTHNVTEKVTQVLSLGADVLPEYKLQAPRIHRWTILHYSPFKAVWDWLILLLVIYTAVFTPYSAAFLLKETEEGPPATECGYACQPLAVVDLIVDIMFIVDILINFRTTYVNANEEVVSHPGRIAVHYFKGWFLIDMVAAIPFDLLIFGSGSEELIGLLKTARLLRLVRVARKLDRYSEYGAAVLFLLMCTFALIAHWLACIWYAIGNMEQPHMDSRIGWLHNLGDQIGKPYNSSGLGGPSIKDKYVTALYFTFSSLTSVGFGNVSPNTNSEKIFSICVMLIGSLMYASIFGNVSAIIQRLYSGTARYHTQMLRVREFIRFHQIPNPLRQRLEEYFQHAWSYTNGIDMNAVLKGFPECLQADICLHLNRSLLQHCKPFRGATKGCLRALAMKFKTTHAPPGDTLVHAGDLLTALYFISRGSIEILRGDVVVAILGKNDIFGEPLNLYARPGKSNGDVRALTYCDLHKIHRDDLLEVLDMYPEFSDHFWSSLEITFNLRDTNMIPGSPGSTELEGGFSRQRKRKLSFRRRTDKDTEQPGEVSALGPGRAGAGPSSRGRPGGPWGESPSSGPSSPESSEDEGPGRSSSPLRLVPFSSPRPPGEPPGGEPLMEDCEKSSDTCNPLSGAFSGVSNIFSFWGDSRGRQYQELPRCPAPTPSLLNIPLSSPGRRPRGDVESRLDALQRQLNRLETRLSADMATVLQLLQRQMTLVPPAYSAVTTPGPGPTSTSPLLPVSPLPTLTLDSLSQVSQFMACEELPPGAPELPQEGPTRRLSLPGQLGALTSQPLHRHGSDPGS
D(3) dopamine receptor, sequence (P35462 whole entry): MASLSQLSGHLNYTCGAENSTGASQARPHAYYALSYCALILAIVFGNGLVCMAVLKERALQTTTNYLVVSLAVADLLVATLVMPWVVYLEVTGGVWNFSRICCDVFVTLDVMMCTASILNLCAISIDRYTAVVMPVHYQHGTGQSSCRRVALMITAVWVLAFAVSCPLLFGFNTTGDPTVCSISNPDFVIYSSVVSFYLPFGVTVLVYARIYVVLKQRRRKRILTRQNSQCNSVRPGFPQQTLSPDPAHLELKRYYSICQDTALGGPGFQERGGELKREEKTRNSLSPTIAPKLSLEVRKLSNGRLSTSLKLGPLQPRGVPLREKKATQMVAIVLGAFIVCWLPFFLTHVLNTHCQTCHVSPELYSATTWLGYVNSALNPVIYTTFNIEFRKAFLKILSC
Adenosine receptor A2a, sequence (P29274 whole entry): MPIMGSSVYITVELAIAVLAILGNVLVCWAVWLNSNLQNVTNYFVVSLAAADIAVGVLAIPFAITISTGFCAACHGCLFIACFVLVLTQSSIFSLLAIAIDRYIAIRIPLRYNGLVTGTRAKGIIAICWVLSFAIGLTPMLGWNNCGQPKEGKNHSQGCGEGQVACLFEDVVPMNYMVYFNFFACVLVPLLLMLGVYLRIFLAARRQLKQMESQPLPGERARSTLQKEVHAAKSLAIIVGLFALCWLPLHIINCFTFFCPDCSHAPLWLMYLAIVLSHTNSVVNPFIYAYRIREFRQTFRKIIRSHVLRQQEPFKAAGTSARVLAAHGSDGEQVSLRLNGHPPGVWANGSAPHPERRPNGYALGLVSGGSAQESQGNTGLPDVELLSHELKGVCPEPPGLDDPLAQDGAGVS
Motilin receptor, sequence (O43193 whole entry): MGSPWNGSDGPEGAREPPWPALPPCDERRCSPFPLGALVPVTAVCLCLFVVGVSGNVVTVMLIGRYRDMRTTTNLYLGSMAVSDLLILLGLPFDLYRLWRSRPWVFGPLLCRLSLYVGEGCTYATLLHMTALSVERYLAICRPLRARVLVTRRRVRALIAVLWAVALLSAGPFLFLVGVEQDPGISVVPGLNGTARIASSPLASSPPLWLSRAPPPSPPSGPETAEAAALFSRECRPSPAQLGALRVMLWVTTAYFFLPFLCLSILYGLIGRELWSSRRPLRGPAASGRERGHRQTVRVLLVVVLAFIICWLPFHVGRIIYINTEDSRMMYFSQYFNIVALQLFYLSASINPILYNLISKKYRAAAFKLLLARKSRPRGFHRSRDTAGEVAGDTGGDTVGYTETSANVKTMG

Take `CCCN1C[C@H](CSC)C[C@@H]2c3cccc4[nH]cc(c34)C[C@H]21` [PERGOLIDE]: the concentration at half-maximal activity (AC50) was 0.0155 µM in [1]; 0.22 µM in assay [2]; greater than 30 µM in [3]; greater than 30 µM in assay [4]; greater than 30 µM on Adenosine receptor A2a; 14.9 µM in assay [5]. Also, the half-maximal activity concentration (AC50) at Melanocortin receptor 3 was greater than 30 µM; in assay [6], greater than 30 µM; in [7] it was 1.04 µM; in assay [8] it was greater than 30 µM; on Motilin receptor, greater than 30 µM; on Adenosine receptor A1 it was greater than 30 µM. For the same compound, the results for the AC50 (in [9]; on Bile salt export pump) were greater than 30 µM and greater than 10 µM, respectively.
`C1CCC(C(CC2CCCCN2)C2CCCCC2)CC1` (centres undefined) [PERHEXILINE]: the AC50 in assay [1] was 12 µM; in assay [3], greater than 30 µM; in assay [4], 4.9 µM; at Adenosine receptor A2a it was greater than 30 µM; in [10] it was 11 µM; in assay [5], 7.05 µM. In addition, the AC50 was 8.28 µM on Melanocortin receptor 3; greater than 30 µM in [6]; greater than 30 µM on D(3) dopamine receptor; 16.5 µM in assay [7]; greater than 3 µM in [8]; 29 µM on Motilin receptor. For the same compound, the values for the concentration at half-maximal activity (AC50) (at Adenosine receptor A1; in assay [9]; on Bile salt export pump) were greater than 30 µM, 7.24 µM and 72 µM, respectively.
With `CC(C)C[C@H]1C(=O)N2CCC[C@H]2[C@]2(O)O[C@](NC(=O)[C@@H]3C=C4c5cccc6[nH]c(Br)c(c56)C[C@H]4N(C)C3)(C(C)C)C(=O)N12` [BROMOCRIPTINE], the AC50 in [1] was 25 µM; in assay [2], greater than 30 µM; in assay [3] it was 9.23 µM; in [4] it was 28 µM; at Adenosine receptor A2a it was greater than 30 µM; in assay [5] it was greater than 30 µM. Further, the concentration at half-maximal activity (AC50) on Melanocortin receptor 3 is greater than 30 µM; in assay [6], greater than 30 µM; at D(3) dopamine receptor, 0.105 µM; in [8], greater than 30 µM; at Motilin receptor, greater than 30 µM; at Adenosine receptor A1 it was greater than 30 µM. The concentration at half-maximal activity (AC50) in assay [9] was greater than 30 µM; at Bile salt export pump, 1.6 µM.
For the compound `Cc1c(C(=O)NN2CCCCC2)nn(-c2ccc(Cl)cc2Cl)c1-c1ccc(Cl)cc1` [RIMONABANT], the AC50 in [1] was greater than 30 µM; in assay [2] it was greater than 30 µM; in [3], greater than 30 µM; at Adenosine receptor A2a it was greater than 30 µM; in [10] it was greater than 30 µM; in assay [5] it was 23 µM. The AC50 at Melanocortin receptor 3 is 15.9 µM; in assay [6] it was 17 µM; on D(3) dopamine receptor, 15 µM; in [7], 13 µM; in assay [11], greater than 30 µM; in [8], greater than 10 µM. Further, the half-maximal activity concentration (AC50) was 21 µM at Motilin receptor, greater than 30 µM at Adenosine receptor A1, 22 µM in assay [9] and 11.6 µM at Bile salt export pump.
As to `Clc1ccc2nsnc2c1NC1=NCCN1` [TIZANIDINE], the concentration at half-maximal activity (AC50) in [1] was greater than 30 µM; in assay [2] it was greater than 30 µM; in assay [3] it was greater than 10 µM; in assay [4], greater than 30 µM; at Adenosine receptor A2a it was greater than 30 µM; in assay [5], greater than 10 µM. The AC50 on Melanocortin receptor 3 was greater than 30 µM; in assay [6], greater than 30 µM; on D(3) dopamine receptor, greater than 10 µM; in [7] it was 1.31 µM; in assay [8], greater than 10 µM; at Motilin receptor, greater than 10 µM. The values for the AC50 (at Adenosine receptor A1; in assay [9]; at Bile salt export pump) were greater than 30 µM, greater than 10 µM and greater than 300 µM, respectively.
Turning to `CC1=C(C(=O)O)N2C(=O)[C@@H](NC(=O)[C@H](N)c3ccccc3)[C@H]2SC1` [CEPHALEXIN ANHYDROUS], the AC50 in assay [3] is greater than 10 µM; at Adenosine receptor A2a, greater than 30 µM; in [10] it was greater than 30 µM; at Melanocortin receptor 3, greater than 30 µM; in assay [6], greater than 30 µM; at D(3) dopamine receptor, greater than 10 µM. In addition, the AC50 in [7] was greater than 10 µM; in assay [11], greater than 30 µM; in assay [8], greater than 10 µM; on Motilin receptor, greater than 10 µM; at Adenosine receptor A1, greater than 30 µM; in [9] it was greater than 10 µM. Further, the AC50 on Bile salt export pump was greater than 300 µM.
On to `CC(=O)Nc1ccc(O)cc1` [ACETAMINOPHEN], for which the half-maximal activity concentration (AC50) (in assay [1]; in assay [2]; in assay [3]; in assay [4]; on Adenosine receptor A2a; in assay [5]) was greater than 30 µM in each case. Moreover, the AC50 (at Melanocortin receptor 3; in assay [6]; at D(3) dopamine receptor; in assay [7]; in [11]; in assay [8]) was greater than 30 µM throughout. Further, the concentration at half-maximal activity (AC50) is greater than 30 µM at Motilin receptor, greater than 30 µM at Adenosine receptor A1, greater than 30 µM in [9] and greater than 300 µM on Bile salt export pump.
As for `c1cnc(N2CCN(Cc3ccc4c(c3)OCO4)CC2)nc1` [PIRIBEDIL], the half-maximal activity concentration (AC50) is greater than 30 µM in [1]; 19 µM in assay [2]; greater than 30 µM in assay [4]; greater than 30 µM on Adenosine receptor A2a; greater than 30 µM in [10]; greater than 30 µM in assay [5]. The AC50 at Melanocortin receptor 3 was greater than 30 µM; in assay [6], greater than 30 µM; at D(3) dopamine receptor, 7.1 µM; in [7], 0.96 µM; in assay [11], 0.059 µM; in assay [8], greater than 30 µM. In addition, the AC50 is greater than 30 µM on Motilin receptor, greater than 30 µM at Adenosine receptor A1, 18 µM in assay [9] and 130 µM on Bile salt export pump.
